Test results reported in PubChem BioAssay (NCI).
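Each compound was tested at five concentrations against cells in 96-well plates for 48 hours. GI50 marks 50% less growth. TGI: total growth inhibition.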

Assays:
Assay in all cases: NCI-60 cell line screen, 48 h
[1] = test system: OVCAR-4 ovarian
[2] = test system: NCI-H522 lung
[3] = test system: SK-MEL-5 melanoma
[4] = test system: CCRF-CEM leukemia
[5] = test system: NCI-H23 lung
[6] = test system: NCI-H460 lung
[7] = test system: SN12C renal
[8] = test system: HS 578T breast
[9] = test system: MDA-MB-231 breast
[10] = test system: ACHN renal
[11] = test system: MDA-MB-435
[12] = test system: DU-145 prostate
[13] = test system: A549 NSCLC
[14] = test system: RPMI-8226 leukemia
[15] = test system: UACC-257 melanoma
[16] = test system: OVCAR-5 ovarian
[17] = test system: MOLT-4 leukemia
[18] = test system: K-562 leukemia
[19] = test system: HOP-62 NSCLC
[20] = test system: MDA-MB-468 breast
[21] = test system: TK-10 renal
[22] = test system: NCI-H226 lung
[23] = test system: SNB-19 CNS
[24] = test system: MCF7 breast
[25] = test system: MALME-3M melanoma
[26] = test system: HT29 colon
[27] = test system: RXF 393 renal
[28] = test system: SK-OV-3 ovarian
[29] = test system: IGROV1 ovarian
[30] = test system: SF-295 CNS
[31] = test system: OVCAR-3 ovarian
[32] = test system: SF-539 CNS
[33] = test system: HCC-2998 colon
[34] = test system: HL-60(TB) leukemia
[35] = test system: UO-31 renal
[36] = test system: CAKI-1 renal
[37] = test system: NCI/ADR-RES ovarian
[38] = test system: T-47D breast
[39] = test system: SNB-75 CNS
[40] = test system: 786-0 renal
[41] = test system: HOP-92 NSCLC
[42] = test system: COLO 205 colon
[43] = test system: SF-268 CNS
[44] = test system: KM12 colon
[45] = test system: BT-549 breast
[46] = test system: PC-3 prostate
[47] = test system: HCT-15 colon
[48] = test system: LOX IMVI melanoma
[49] = test system: HCT-116 colon
[50] = test system: SW-620 colon
[51] = test system: OVCAR-8 ovarian
[52] = test system: SK-MEL-28 melanoma
[53] = test system: EKVX NSCLC
[54] = test system: M14 melanoma
[55] = test system: U251 CNS
[56] = test system: SR leukemia
[57] = test system: UACC-62 melanoma

Cc1cc(C(NC(=O)CCCCCNc2cccc3c2C(=O)N(C2CCC(=O)CC2=O)C3=O)c2cccc(N(C)C)c2)c(O)c2ncccc12 (centres undefined)
GI50 [1]: 1480 nM | TGI [1]: > 58500 nM | GI50 [2]: 1800 nM | TGI [2]: > 58500 nM | GI50 [3]: 822 nM | TGI [3]: 1830 nM | GI50 [4]: 26.8 nM | TGI [4]: 1360 nM | GI50 [5]: 1540 nM | TGI [5]: > 58500 nM | GI50 [6]: 1140 nM | TGI [6]: > 58500 nM | GI50 [7]: 1210 nM | TGI [7]: > 58500 nM | GI50 [8]: 482 nM | TGI [8]: > 58500 nM | GI50 [9]: 22.2 nM | TGI [9]: 136 nM | GI50 [10]: 1920 nM | TGI [10]: > 58500 nM | GI50 [11]: 2220 nM | TGI [11]: > 58500 nM | GI50 [12]: 3030 nM | TGI [12]: > 58500 nM | GI50 [13]: 2120 nM | TGI [13]: > 58500 nM | GI50 [14]: 1580 nM | TGI [14]: > 58500 nM | GI50 [15]: 2450 nM | TGI [15]: > 58500 nM | GI50 [16]: 1900 nM | TGI [16]: > 58500 nM | GI50 [17]: 34.6 nM | TGI [17]: > 58500 nM | GI50 [18]: 824 nM | TGI [18]: > 58500 nM | GI50 [19]: 547 nM | TGI [19]: > 12600 nM | GI50 [20]: 27.8 nM | TGI [20]: 462 nM | GI50 [21]: 2670 nM | TGI [21]: > 58500 nM | GI50 [22]: 782 nM | TGI [22]: > 15800 nM | GI50 [23]: 1560 nM | TGI [23]: > 58500 nM | GI50 [24]: 982 nM | TGI [24]: > 58500 nM | GI50 [25]: 97.5 nM | TGI [25]: 957 nM | GI50 [26]: 2360 nM | TGI [26]: > 58500 nM | GI50 [27]: 1550 nM | TGI [27]: > 58500 nM | GI50 [28]: 1530 nM | TGI [28]: 5020 nM | GI50 [29]: 686 nM | TGI [29]: 6170 nM | GI50 [30]: 1530 nM | TGI [30]: > 58500 nM | GI50 [31]: 1230 nM | TGI [31]: > 58500 nM | GI50 [32]: 1830 nM | TGI [32]: 30800 nM | GI50 [33]: 941 nM | TGI [33]: 3760 nM | GI50 [34]: 19.9 nM | TGI [34]: 1670 nM | GI50 [35]: 745 nM | TGI [35]: > 25400 nM | GI50 [36]: 1140 nM | TGI [36]: > 58500 nM | GI50 [37]: 5440 nM | TGI [37]: > 58500 nM | GI50 [38]: 739 nM | TGI [38]: > 58500 nM | GI50 [39]: 766 nM | TGI [39]: > 58500 nM | GI50 [40]: 1360 nM | TGI [40]: > 58500 nM | GI50 [41]: 36.5 nM | TGI [41]: 524 nM | GI50 [42]: 1080 nM | TGI [42]: > 58500 nM | GI50 [43]: 1410 nM | TGI [43]: > 58500 nM | GI50 [44]: 1730 nM | TGI [44]: > 58500 nM | GI50 [45]: 85.1 nM | TGI [45]: 930 nM | GI50 [46]: 103 nM | TGI [46]: > 58500 nM | GI50 [47]: 910 nM | TGI [47]: > 58500 nM | GI50 [48]: 1200 nM | TGI [48]: > 16100 nM | GI50 [49]: 932 nM | TGI [49]: > 58500 nM | GI50 [50]: 564 nM | TGI [50]: > 58500 nM | GI50 [51]: 555 nM | TGI [51]: > 58500 nM | GI50 [52]: 2060 nM | TGI [52]: > 58500 nM | GI50 [53]: 1360 nM | TGI [53]: > 58500 nM | GI50 [54]: 585 nM | TGI [54]: 3780 nM | GI50 [55]: 1390 nM | TGI [55]: > 58500 nM | GI50 [56]: 922 nM | TGI [56]: > 58500 nM | GI50 [57]: 1330 nM | TGI [57]: 4630 nM
